Patent US20090029956A1, “Substance mixture” (priority 2005, published 2009)

Test system: human ciliary cells
Assay: Flicker frequency and regeneration capability of human ciliary cells, photometric method
Type: cell-based
Conditions: for Mean value in percent, 20 min test Solution: (II) / Mean value in percent, 20 min NaCl 0.9% (III): Time I = 100; for Mean value in percent, 20 min NaCl 0.9% (III): Time III (regeneration)
Method: In comparison with this, the seriously damaging effect of preservatives (on the basis of benzalkonium chloride, BAC) used in conventional cortisone preparations on human ciliary cells was compared. The flicker frequency was determined in a manner known per se by means of a photometric method. Solutions and fluticasone propionate and mixed solutions of fluticasone propionate with N-chlorotaurine sodium (NCT) were prepared in accordance with the following table: Mucous membrane cells were first incubated with an isotonic NaCl solution for 20 minutes (Time I), subsequently incubated with the solutions A, B and C for 20 minutes (Time II) and subsequently incubated in an isotonic solution for a further 20 minutes (Time III). Parallel to this, […] mucous membrane cells were incubated according to the same pattern in comparison with BAC solutions (concentrations of 0.04 mg/ml; 0.1 mg/ml; 0.2 mg/ml; 0.5 mg/ml). The results of the regeneration capability of the ciliary cells after treatment with the solutions A, B and C were compared with the results after the treatment with the BAC solutions.

benzalkonium chloride [BAC]
Mean value in percent, 20 min test Solution: (II) (0.04 mg/ml BAC): 96.6%
Mean value in percent, 20 min NaCl 0.9% (III) (0.04 mg/ml BAC): 100%
Mean value in percent, 20 min test Solution: (II) (0.1 mg/ml BAC): 91.9%
Mean value in percent, 20 min NaCl 0.9% (III) (0.1 mg/ml BAC): 93.6%
Mean value in percent, 20 min test Solution: (II) (0.2 mg/ml BAC): 63.5%
Mean value in percent, 20 min NaCl 0.9% (III) (0.2 mg/ml BAC): 19.4%
Mean value in percent, 20 min test Solution: (II) (0.5 mg/ml BAC): 0%
Mean value in percent, 20 min NaCl 0.9% (III) (0.5 mg/ml BAC): 0%
Recovery of ciliary cells after treatment (treatment with more than 0.1 mg/ml benzalkonium chloride): remain permanently damaged
